Key:
[1] = tested on: 786-0 cells, a human kidney carcinoma cell line having a non-mutated PI3Kα; experiment: In vivo efficacy in 786-0 kidney carcinoma xenograft; set-up: species or system mice; conditions: FIG. 6
Description: Compound A was administered orally at 60 and 120 mg/kg and compound A was administered orally as a solution at 1 mg/kg (QD). For example, a PI3Kα inhibitor is compared to a kinase inhibitor with specificity for mTor. […] FIG. 6C also provides biochemical potency data for the two compared inhibitors. PI3 Kinase α, β, γ and δ activity was assayed using the PI3 Kinase HTRF® assay kit (Millipore Corporation). Purified recombinant PI3Kα, PI3Kβ, PI3Kγ and PI3Kδ were obtained from Millipore Corporation. […] Emission ratios were converted into percent inhibitions and imported into GraphPad Prism software. […] IC50 values were determined using a nonlinear regression model available in GraphPad Prism 5.

[2] = tested on: PI3 kinase signaling pathway in MDA-MB-361, HCC-1419, NCI-H1048; experiment: Cellular signaling immunoblot in human tumor cell lines; assay type: cell-based; conditions: Compound B 5-100 nM, Compound A 1 and 3 μM, 2 or 24 hours, Western blot, FIG. 15
Description: Compound A was synthesized at Intellikine and was supplied as a stock of 10 mM in 100% DMSO and diluted in the respective cell line's growth media.
Prior to treatment, cells were plated at 2×10^5 cells/well in 12-well plates in normal growth media and grown to 80% confluence.
Media was aspirated, cells were washed with 1×PBS, Ice cold 1× Cell Lysis Buffer was prepared from 10× stock and 100 μM 4-(2-Aminoethyl)benzenesulfonyl fluoride hydrochloride (AEBSF) and 1 mM sodium orthovanadate […] was added. Cells were lysed by adding 1× Cell Lysis Buffer (100 μL per well of 12-well plate of cells). Cells incubated on ice for 20 to 30 minutes to allow complete lysis, and lysates were transferred to microcentrifuge tubes, sonicated for 10 seconds, and subjected to microcentrifugation at 14,000×g for 10 minutes at 4° C. Cleared supernatants were transferred to fresh tubes, and stored at −20° C. for Western blot analysis. […] Molecular weight markers were loaded, the gel electrophoresed at 200V for 40 minutes.
The gels were electrotransferred to nitrocellulose membranes, and incubated in blocking buffer (Tris buffered saline plus 0.5% Tween-20 (TBS/T)+5% bovine serum albumin (BSA)) for 1 hour at room temperature. […]

[3] = Plasma insulin in nude mice (Example 41); assay type: in vivo, Mus musculus; conditions: 120 minutes after the last dose (Day 28)
Description: Insulin was measured using Mesoscale Discovery's Mouse/Rat Insulin Kit (Rockville, Md., USA). Plasma samples collected at 120 minutes post last dose were thawed on ice and reagents from the kit were brought to room temperature. 150 μL of Blocker A Solution was added to each well, the plates were covered, and then incubated on a plate shaker (300-1000 rpm) for 1 hour at room temperature. After the first incubation, the wells were washed three times with phosphate buffered saline+Tween 20 (PBS-T), and then 40 μL of 1× Detection Antibody Solution followed by 10 μL of unknown neat samples or standards were added to the wells in duplicate. The plate was then covered and incubated on a plate shaker (300-1000 rpm) for 2 hours at room temperature. Following the second incubation, the wells were washed three times with PBS-T, and then 150 μL of 1× Read Buffer T was added to each well. The plates were immediately analyzed on the SECTOR Imager using the MSD Discovery Workbench software (Meso Scale Discovery). A 4-parameter logisitic model was utilized by the software to determine the concentrations of the unknown samples based on the standard curve it generated.

Structure (SMILES)	inhibition of kinase activity and tumor growth in 786-0 model ([1]; orally as a solution at 1 mg/kg (QD))	inhibition of phosphorylation of downstream targets AKT, S6, 4E-BP1 [2]	Mean Plasma Insulin at 2 hr. ([3]; 0.3 mg/kg QD) [ng/mL]	Mean Plasma Insulin at 2 hr. ([3]; 1.0 mg/kg QD 3on/4off) [ng/mL]	Mean Plasma Insulin at 2 hr. ([3]; 3.0 mg/kg QW) [ng/mL]	anti-tumor activity in 786-0 model ([1]; orally at 60 and 120 mg/kg, compared to MDA derived tumors)	Mean Plasma Insulin at 2 hr. ([3]; 60 mg/kg QD) [ng/mL]	Plasma Insulin Fold Over Control ([3]; 60 mg/kg QD) [fold]	Mean Plasma Insulin at 2 hr. ([3]; 70 mg/kg QD 3on/4off) [ng/mL]	Plasma Insulin Fold Over Control ([3]; 70 mg/kg QD 3on/4off) [fold]	Mean Plasma Insulin at 2 hr. ([3]; 140 mg/kg QD 3on/4off) [ng/mL]	Plasma Insulin Fold Over Control ([3]; 140 mg/kg QD 3on/4off) [fold]	Mean Plasma Insulin at 2 hr. ([3]; 210 mg/kg QW) [ng/mL]	Plasma Insulin Fold Over Control ([3]; 210 mg/kg QW) [fold]
CC(C)n1nc(-c2ccc3oc(N)nc3c2)c2c(N)ncnc21 [Compound B]	effective	potently inhibited	3.74	2.83	5.94									
Nc1nc2cc(-c3ccc4ncc(C(=O)N5CCOCC5)n4c3)ccc2o1 [Compound A]		potently inhibited				decreased activity	0.7	1.47	1.51	3.16	2.39	5.01	3.96	8.29
